{"source": "patent US8420335B2", "about": "“Inhibition of GASC1” (Kobenhavns Universitet, priority 2006, dated 2013)", "key": {"GASC1": {"target": "T1, GASC1 (Homo sapiens, UniProt Q9H3R0)", "T1 construct": "Full-length amino-terminally hexahistidine-tagged human GASC1 baculovirus transfer vector; made in house; host or cells: baculovirus-infected insect cells (pAcHLT-A transfer vector, Bakpak6)", "T1 sequence (Q9H3R0 1-1056)": "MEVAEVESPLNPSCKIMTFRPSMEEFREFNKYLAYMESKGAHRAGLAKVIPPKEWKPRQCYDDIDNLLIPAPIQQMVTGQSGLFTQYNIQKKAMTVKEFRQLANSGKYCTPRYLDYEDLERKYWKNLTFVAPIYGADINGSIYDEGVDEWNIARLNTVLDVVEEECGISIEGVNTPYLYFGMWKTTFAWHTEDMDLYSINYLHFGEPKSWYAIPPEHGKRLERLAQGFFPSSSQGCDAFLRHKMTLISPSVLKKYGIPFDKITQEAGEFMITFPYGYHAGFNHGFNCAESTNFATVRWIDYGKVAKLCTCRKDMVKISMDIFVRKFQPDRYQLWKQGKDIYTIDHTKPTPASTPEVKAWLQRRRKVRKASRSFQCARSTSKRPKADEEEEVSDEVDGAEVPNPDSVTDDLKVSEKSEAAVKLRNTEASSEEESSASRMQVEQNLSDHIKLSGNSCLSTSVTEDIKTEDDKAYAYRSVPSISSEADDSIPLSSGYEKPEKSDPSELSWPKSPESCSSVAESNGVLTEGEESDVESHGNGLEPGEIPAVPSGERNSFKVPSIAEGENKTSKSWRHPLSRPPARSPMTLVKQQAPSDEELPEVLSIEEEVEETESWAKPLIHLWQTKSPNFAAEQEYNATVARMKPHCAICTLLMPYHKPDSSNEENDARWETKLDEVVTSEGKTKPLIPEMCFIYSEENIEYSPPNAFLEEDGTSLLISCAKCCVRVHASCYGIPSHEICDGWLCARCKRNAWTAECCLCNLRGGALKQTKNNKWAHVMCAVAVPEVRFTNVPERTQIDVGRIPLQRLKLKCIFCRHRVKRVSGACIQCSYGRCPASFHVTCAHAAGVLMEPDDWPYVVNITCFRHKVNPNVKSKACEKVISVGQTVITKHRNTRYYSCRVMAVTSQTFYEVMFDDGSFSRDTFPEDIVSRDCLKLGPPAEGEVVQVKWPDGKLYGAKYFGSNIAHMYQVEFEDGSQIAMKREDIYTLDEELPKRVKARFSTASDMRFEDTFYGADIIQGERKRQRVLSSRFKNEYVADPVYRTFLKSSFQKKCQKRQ", "assay": "Demethylation assay: recombinant His-GASC1 with bulk histones or H3K9me3 peptide, western blotting", "assay_type": "biochemical"}, "WI38": {"system": "WI38", "assay": "Quercetin treatment of WI38 cells: H3K9me3, senescent-like phenotype, growth", "assay_type": "cell-based", "details": "WI38, low/moderate GASC1 level", "from_the_text": "(§1) The biological effects of quercetin have previously been attributed to inhibition of topoisomerase I^43, modulation of protein and lipid kinase signalling pathways^44 and scavenging of reactive oxygen species^45, In light of the present findings it is tempting to speculate that the anti-cancer effect of quercetin might at least partially by explained by its inhibitory effect on GASC1 and other members of the JMJD2 subfamily."}, "KYSE-150 cells": {"system": "KYSE-150 cells", "assay": "Overnight quercetin treatment of KYSE-150 cells: H3K9me3 by immunofluorescence and western blotting, growth, senescence", "assay_type": "cell-based, human"}, "U2OS": {"system": "U2OS", "assay": "Quercetin treatment of U2OS cells: H3K9me3, senescent-like phenotype, growth", "assay_type": "cell-based, human", "details": "low/moderate GASC1 level"}, "KYSE-450 cells": {"system": "KYSE-450 cells", "assay": "Quercetin treatment of KYSE-450 cells: H3K9me3, senescent-like phenotype, growth", "assay_type": "cell-based, human", "details": "KYSE-450, low/moderate GASC1 level", "from_the_text": "as §1"}, "[1]": {"details": "His-GASC1, bulk histones, co-factors FeSO4 and α-ketoglutarate, 30 min at 37° C., western blotting"}}, "note": "“Also recorded” adds a separate entry of the source. Where two headings read alike, the source gives them in different places.", "data": [{"smiles": "[Cl-].[Cl-].[Co+2]", "note": "[CoCl2]", "values": [{"measurement": "inhibition of GASC1-mediated demethylation of H3K9me3", "setting": "GASC1", "value": "inhibit GASC1 demethylation activity; also recorded: able to inhibit the demethylation reaction effectively"}]}, {"smiles": "O=C(O)CN(CCN(CC(=O)O)CC(=O)O)CC(=O)O", "note": "[EDTA]", "values": [{"measurement": "GASC1 demethylation of H3K9me3 in the presence of EDTA", "setting": "GASC1; EDTA (chelating iron), 30 min at 37° C., western blotting", "value": "significantly reduced"}]}, {"smiles": "O=C(O)CNC(=O)C(=O)O", "note": "[N-oxalylglycine]", "values": [{"measurement": "inhibition of GASC1-mediated demethylation of H3K9me3", "setting": "GASC1; [1]", "value": "able to inhibit the demethylation reaction effectively"}]}, {"smiles": "O=S(=O)([O-])[O-].[Ni+2]", "note": "[NiSO4]", "values": [{"measurement": "inhibition of GASC1-mediated demethylation of H3K9me3", "setting": "GASC1; [1]", "value": "inhibit GASC1 demethylation activity; also recorded: able to inhibit the demethylation reaction effectively"}]}, {"smiles": "O=c1c(O)c(-c2ccc(O)c(O)c2)oc2cc(O)cc(O)c12", "note": "[quercetin]", "values": [{"measurement": "H3K9me3 increase, senescent-like phenotype and growth inhibition compared with KYSE-150", "setting": "WI38", "value": "did not display the same increase in H3K9me3 nor the same senescent-like phenotype and growth inhibition"}, {"measurement": "growth rate", "setting": "KYSE-150 cells; data not shown", "value": "marked decrease of growth rate"}, {"measurement": "phenotype (cell morphology, SAHFs, β-gal staining)", "setting": "KYSE-150 cells; data not shown", "value": "senescent-like phenotype"}, {"measurement": "H3K9 trimethylation", "setting": "KYSE-150 cells; immunofluorescence and western blotting", "value": "staggering increase in H3K9 trimethylation"}, {"measurement": "H3K9me3 increase, senescent-like phenotype and growth inhibition compared with KYSE-150", "setting": "U2OS", "value": "did not display the same increase in H3K9me3 nor the same senescent-like phenotype and growth inhibition"}, {"measurement": "H3K9me3 increase, senescent-like phenotype and growth inhibition compared with KYSE-150", "setting": "KYSE-450 cells", "value": "did not display the same increase in H3K9me3 nor the same senescent-like phenotype and growth inhibition"}, {"measurement": "inhibition of GASC1-mediated demethylation of H3K9me3", "setting": "GASC1; [1]", "value": "able to effectively inhibit GASC1-mediated demethylation of H3K9me3 in vitro"}, {"measurement": "inhibition of GASC1-mediated demethylation of H3K9me3", "setting": "GASC1; His-GASC1, bulk histones, co-factors FeSO4 and α-ketoglutarate, 30 min at 37° C., western blotting, listed as quercetine", "value": "able to inhibit the demethylation reaction effectively"}]}]}
